Measured values: US10221139B2, “Inhibitors of histone demethylases” (Gilead Sciences, Inc., priority 2012, dated 2019)

target: T1, PLU1 (KDM5B) (Homo sapiens, UniProt Q9UGL1); assay: Immunofluorescence assay in U2OS cells transfected with pCMVHA PLU1 (H3K4me2 mark); assay type: cell-based; settings: 20 hours
T1 construct: (1-752); host or cells: U2OS
T1 sequence (Q9UGL1 1-752): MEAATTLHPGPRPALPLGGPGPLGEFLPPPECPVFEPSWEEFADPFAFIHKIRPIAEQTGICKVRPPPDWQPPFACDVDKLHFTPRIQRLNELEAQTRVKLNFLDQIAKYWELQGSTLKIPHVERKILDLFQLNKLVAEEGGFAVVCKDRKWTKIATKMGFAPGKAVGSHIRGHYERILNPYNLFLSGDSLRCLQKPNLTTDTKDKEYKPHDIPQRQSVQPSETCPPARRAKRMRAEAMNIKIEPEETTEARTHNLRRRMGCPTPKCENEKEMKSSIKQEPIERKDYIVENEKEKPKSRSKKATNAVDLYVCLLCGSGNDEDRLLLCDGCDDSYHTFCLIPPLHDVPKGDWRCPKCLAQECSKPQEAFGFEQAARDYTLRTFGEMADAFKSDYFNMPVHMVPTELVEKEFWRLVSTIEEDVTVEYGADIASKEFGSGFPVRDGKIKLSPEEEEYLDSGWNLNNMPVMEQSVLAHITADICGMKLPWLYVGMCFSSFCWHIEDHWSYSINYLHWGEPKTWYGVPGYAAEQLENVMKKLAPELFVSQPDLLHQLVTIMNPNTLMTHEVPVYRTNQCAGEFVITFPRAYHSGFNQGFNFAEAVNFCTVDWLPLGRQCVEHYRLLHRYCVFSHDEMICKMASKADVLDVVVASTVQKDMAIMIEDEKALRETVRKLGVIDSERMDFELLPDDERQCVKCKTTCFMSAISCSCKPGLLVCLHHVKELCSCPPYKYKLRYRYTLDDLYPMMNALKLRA
Experimental: U2OS cells were seeded 24 hours before transfection. Transfection was performed with Fugene HD transfection reagent as recommended by the manufacturer. 6 hours after transfection, the cells were harvested and seeded into multi well plates into media containing compound. The media used was DMEM containing 5% FBS and pen/strep. 20 hours after incubation of cells with compounds, the cells were washed once in PBS, harvested by fixation with formaldehyde 4% aqueous solution, and washed 2 times in PBS. Subsequently, the cells were permeabilized in PBS with 0.2% Triton X-100 for 10 min at room temperature. Blocking was performed in PBS with 0.2% Triton X-100 and 5% FBS for 45 min at room temperature. The cells were incubated with primary antibodies diluted 1 μg/ml in blocking solution over night at 4° C. The primary antibodies used in the assays were HA.11 (Covance, MMS-101P) and the antibody detecting the mark specified in the Table 6 below. After incubation with primary antibodies, the cells were washed 3 times with PBS, incubated with secondary antibodies diluted 1:1000 (Alexa fluor 594 goat anti rabbit IgG, Invitrogen, A11012; Alexa flour 488 donkey anti mouse IgG, Invitrogen, A21202) and Hoechst, 20 μg/ml (Sigma, 33342) in blocking solution, and washed again 3 times with PBS. Finally, PBS was added and high throughput imaging and analysis were performed by an IN Cell Analyzer 1000 (GE Healthcare). The robot software analyzed individual cells and divided these into HA^+ (transfected cells) and HA^− (non-transfected cells). The IC50 values in Table 7 below were based on an average measure of the staining of the mark specified in the Table 6 below in the transfected cells.

IC50 | Compound
1000 to 50000 nM | CCN(CCC#N)C(=O)CNCc1cc(C(=O)O)ccn1 [drawing 320, 2-[({[(2-cyanoethyl)(ethyl)carbamoyl]methyl}amino)methyl] pyridine-4-carboxylic acid]
1000 to 50000 nM | CCCCN1CCCC1CCNCc1cc(C(=O)O)ccn1 (stereo not drawn) [drawing 321, 2-({[2-(1-butylpyrrolidin-2-yl)ethyl]amino}methyl) pyridine-4-carboxylic acid]
> 50000 nM | CN(CCCCN(Cc1ccccc1)C1CC1)C(=O)CNCc1cc(C(=O)O)ccn1 [drawing 323]

system: demethylation of H3K4 (H3K4me3 mark) in U2OS cells; assay: Histone lysine demethylase immunofluorescence assay, non-transfected U2OS cells (H3K4me3 staining); assay type: cell-based; settings: Homo sapiens, 20 hours
Experimental: Histone Lysine Demethylase Immunofluorescence Assays for IC50 Value Determination, Non-Transfected Cells
U2OS cells were harvested and seeded into multi well plates into media containing compound. The media used was DMEM containing 5% FBS and pen/strep. 20 hours after incubation of cells with compounds, the cells were washed once in PBS, harvested by fixation with formaldehyde 4% aqueous solution, and washed 2 times in PBS. Subsequently, the cells were permeabilized in PBS with 0.2% Triton X-100 for 10 min at room temperature. Blocking was performed in PBS with 0.2% Triton X-100 and 5% FBS for 45 min at room temperature. The cells were incubated with αH3K4me3 primary antibody (Cell Signaling, #9751S) diluted 1:1000 in blocking solution over night at 4° C. After incubation with primary antibody, the cells were washed 3 times with PBS, incubated with secondary antibody diluted 1:1000 (Alexa fluor 594 goat anti rabbit IgG, Invitrogen, A11012) and Hoechst, 20 μg/ml (Sigma, 33342) in blocking solution, and washed again 3 times with PBS. Finally, PBS was added and high throughput imaging and analysis were performed by an IN Cell Analyzer 1000 (GE Healthcare). The IC50 values seen in Table 4 were based on an average measure of the staining of the H3K4me3 mark in cells.

IC50 | Compound
> 50000 nM | O=C(CNCc1cc(C(=O)O)ccn1)NC1CCN(CCCc2ccccc2)CC1 [drawing 223, 2-{[({[1-(3-phenylpropyl)piperidin-4-yl]carbamoyl}methyl)amino]methyl} pyridine-4-carboxylic acid]
1000 to 50000 nM | COC(=O)c1ccnc(CNCCCN2CCCC2)c1 [drawing 224, methyl 2-({[3-(pyrrolidin-1-yl)propyl]amino}methyl)pyridine-4-carboxylate]
1000 to 50000 nM | CCN(CC)CCCCNCc1cc(C(=O)O)ccn1 [drawing 225, 2-({[4-(diethylamino)butyl]amino}methyl) pyridine-4-carboxylic acid]
1000 to 50000 nM | CCN(CCN(C)C)C(=O)CNCc1cc(C(=O)O)ccn1 [drawing 226, 2-{[({[2-(dimethylamino)ethyl](ethyl)carbamoyl}methyl)amino]methyl}pyridine-4-carboxylic acid]
< 1000 nM | CCN(CC)CCCCNCc1cc(C(=O)Oc2ccc(OC)cc2)ccn1 [drawing 227, 4-methoxyphenyl 2-({[4-(diethylamino)butyl]amino}methyl) pyridine-4-carboxylate]
< 1000 nM | CCOC(=O)c1ccccc1OC(=O)c1ccnc(CNCCCCN(CC)CC)c1 [drawing 228, 2-(ethoxycarbonyl)phenyl 2-({[4-(diethylamino)butyl]amino}methyl) pyridine-4-carboxylate]
1000 to 50000 nM | CCN(CC)CCCCNCc1cc(C(=O)OCCN(C)C)ccn1 [drawing 229, 2-(dimethylamino)ethyl 2-({[4-(diethylamino)butyl]amino}methyl) pyridine-4-carboxylate]
1000 to 50000 nM | CCN(CC)CCCCNCc1cc(C(=O)OCCCN(C)C)ccn1 [drawing 230, 3-(dimethylamino)propyl 2-({[4-(diethylamino)butyl]amino}methyl) pyridine-4-carboxylate]
< 1000 nM | CCOC(=O)Nc1ccc(COC(=O)c2ccnc(CNCCCCN(CC)CC)c2)cc1 [drawing 231, {4-[(ethoxycarbonyl)amino]phenyl}methyl 2-({[4-(diethylamino)butyl]amino}methyl) pyridine-4-carboxylate]
< 1000 nM | CCN(CC)CCCCNCc1cc(C(=O)Oc2c(OC)cccc2OC)ccn1 [drawing 232, 2,6-dimethoxyphenyl 2-({[4-(diethylamino)butyl]amino}methyl) pyridine-4-carboxylate]
< 1000 nM | CCN(CCN(C)C)C(=O)CNCc1cc(C(=O)Oc2ccc(OC)cc2)ccn1 [drawing 234, 4-methoxyphenyl 2-{[({[2-(dimethylamino)ethyl](ethyl)carbamoyl}methyl)amino]methyl}pyridin-4-carboxylate]
< 1000 nM | CCOC(=O)c1ccccc1OC(=O)c1ccnc(CNCC(=O)N(CC)CCN(C)C)c1 [drawing 235, 2-(ethoxycarbonyl)phenyl 2-{[({[2-(dimethylamino)ethyl](ethyl)carbamoyl}methyl)amino]methyl}pyridine-4-carboxylate]
< 1000 nM | CCOC(=O)N(C)c1ccc(COC(=O)c2ccnc(CNCCCCN(CC)CC)c2)cc1 [drawing 236]
< 1000 nM | CCN(CCN(C)C)C(=O)CNCc1cc(C(=O)Oc2ccc(C(C)(C)C)cc2)ccn1 [drawing 237, 4-tert-butylphenyl 2-{[({[2-(dimethylamino)ethyl](ethyl)carbamoyl}methyl)amino]methyl}pyridine-4-carboxylate]
< 1000 nM | CCN(CCN(C)C)C(=O)CNCc1cc(C(=O)OC(C)CC(C)=O)ccn1 (stereo not drawn) [drawing 238, 4-oxopentan-2-yl 2-{[({[2-(dimethylamino)ethyl](ethyl)carbamoyl}methyl)amino]methyl}pyridine-4-carboxylate]
< 1000 nM | CCN(CCN(C)C)C(=O)CNCc1cc(C(=O)OC(C)CCNC(=O)C(F)(F)F)ccn1 (stereo not drawn) [drawing 239, 4-(trifluoroacetamido)butan-2-yl 2-{[({[2-(dimethylamino)ethyl](ethyl)carbamoyl}methyl)amino]methyl}pyridin-4-carboxylate]
< 1000 nM | CCN(CCN(C)C)C(=O)CNCc1cc(C(=O)OC(C)CCN(C)C(=O)C(F)(F)F)ccn1 (stereo not drawn) [drawing 240, 4-(2,2,2-trifluoro-N-methylacetamido)butan-2-yl 2-{[({[2-(dimethylamino)ethyl](ethyl)carbamoyl}methyl)amino]methyl}pyridine-4-carboxylate]
< 1000 nM | CCOC(=O)c1ccnc(CNCC(=O)N(CC)CCN(C)C)c1 [drawing 241, ethyl 2-{[({[2-(dimethylamino)ethyl](ethyl)carbamoyl}methyl)amino]methyl}pyridine-4-carboxylate]
< 1000 nM | C=CC(CCNC(=O)C(F)(F)F)OC(=O)c1ccnc(CNCC(=O)N(CC)CCN(C)C)c1 (stereo not drawn) [drawing 242, 5-(trifluoroacetamido)pent-1-en-3-yl 2-{[({[2-(dimethylamino)ethyl](ethyl)carbamoyl}methyl)amino]methyl}pyridine-4-carboxylate]
< 1000 nM | C=CC(CCN(C)C(=O)C(F)(F)F)OC(=O)c1ccnc(CNCC(=O)N(CC)CCN(C)C)c1 (stereo not drawn) [drawing 243, 5-(2,2,2-trifluoro-N-methylacetamido)pent-1-en-3-yl 2-{[({[2-(dimethylamino)ethyl](ethyl)carbamoyl}methyl)amino]methyl}pyridine-4-carboxylate]
< 1000 nM | CCCCCCCCCCCCCCCC(=O)OCC(COC(=O)CCCCCCCCCCCCCCC)OC(=O)c1ccnc(CNCC(=O)N(CC)CCN(C)C)c1 [drawing 244, 2-(2-{[({[2-(dimethylamino)ethyl](ethyl)carbamoyl}methyl)amino]methyl}pyridine-4-carbonyloxy)-3-(hexadecanoyloxy)propyl hexadecanoate]
< 1000 nM | CCCCCCCCCCCCCCCC(=O)OCC(COC(=O)c1ccnc(CNCC(=O)N(CC)CCN(C)C)c1)OC(=O)CCCCCCCCCCCCCCC (stereo not drawn) [drawing 245, 1-(2-{[({[2-(dimethylamino)ethyl](ethyl)carbamoyl}methyl)amino]methyl}pyridine-4-carbonyloxy)-3-(hexadecanoyloxy)propan-2-yl hexadecanoate]
< 1000 nM | CCN(CCN(C)C)C(=O)CNCc1cc(C(=O)OC)ccn1 [drawing 246, methyl 2-{[({[2-(dimethylamino)ethyl](ethyl)carbamoyl}methyl)amino]methyl}pyridine-4-carboxylate]
1000 to 50000 nM | CCN(CCN(C)C)C(=O)CNCc1cc(C(=O)N(C)S(C)(=O)=O)ccn1 [drawing 247, 2-{[({[2-(dimethylamino)ethyl](ethyl)carbamoyl}methyl)amino]methyl}-N-methanesulfonyl-N-methylpyridine-4-carboxamide]
